Experimental data reported in the supplement of paper PMC11208160.

Test: recombinant barcode read abundance after kanamycin selection (control-corrected) (log10(CPM+1)); higher = more efficient recombination; sequences stand for … in AGTGCAGAGAAAATCGGCCAGTTTTCTCTGCCTGCAGTCCGCATGCCGT…AGATTTATGCAGCGGACTGCCTTTCTCCCAAAGTGATAAACCGGACAGTATCATGGACCGGTTTTCCCGGTAATCCGTATTTGCAAGGTTGGTTTCACT; site = the 11-nt target
Procedure, shortened: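 Reported as log10(CPM+1), each value stands for recombination efficiency. That efficiency is the averaged, control-corrected counts per million of barcodes found at recombinant junctions. Cells from a pooled E. coli library pairing targets with IS621 bridge RNA target-binding loops were plated twice on chloramphenicol/ampicillin LB agar (control) and twice on chloramphenicol/ampicillin/kanamycin with 0.1 mM IPTG.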
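Also: IS621 recombinase and bridge RNA in Escherichia coli cells.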

Sequence	recombinant barcode read abundance (log10)
TGGCATCCTTGGGTTCTAACCTGTTGCGT (site TGGCATCCTAC)	2.53
TGGCCACCTTGGGTTCTAACCTGTTGCCT (site CGGCCACCTAG)	0.115
TGGCCACCTTGGGTTCTAACCTGTTGCCT (site TGGCCACCTAG)	1.6
TGGCCCTCTTGGGTTCTAACCTGTTGCTT (site TGGCCCTCTAA)	1.63
TGGCCCTCTTGGGTTCTAACCTGTTGCTT (site TGGCCCTCTCA)	0.293
TGGCCCTCTTGGGTTCTAACCTGTTGCTT (site TGGCCCTCTGA)	0.52
TGGCCCTCTTGGGTTCTAACCTGTTGCTT (site TGGCCCTCTTA)	0.056
TGGCCGACTTGGGTTCTAACCTGTTGCAC (site TCGCAGACTGT)	0.0415
TGGCCGACTTGGGTTCTAACCTGTTGCAC (site TGGCCGACTGT)	1.65
TGGCCTGCTTGGGTTCTAACCTGTTGCCT (site TGGCCTGCTAG)	0.868
TGGCCTGCTTGGGTTCTAACCTGTTGCCT (site TGGCGAGCTAG)	0.176
TGGCTAGCTTGGGTTCTAACCTGTTGCAC (site CATTCGCCTAC)	0.0401
TGGCTAGCTTGGGTTCTAACCTGTTGCAC (site TGGCTAGCTGT)	1.77
TGGGACACTTGGGTTCTAACCTGTTGCCG (site AGGGACTCTCG)	0.403
TGGGACACTTGGGTTCTAACCTGTTGCCG (site TGGGACACTCG)	2.48
TGGGTCACTTGGGTTCTAACCTGTTGCTA (site GTTTAATCTAT)	0.0621
TGGGTCACTTGGGTTCTAACCTGTTGCTA (site TGGGTCACTTA)	2.07
TGGGTCCCTTGGGTTCTAACCTGTTGCGA (site AAATGTACTAG)	0.252
TGGGTCCCTTGGGTTCTAACCTGTTGCGA (site TGGGTCCCTTC)	3
TGGTATCCTTGGGTTCTAACCTGTTGCCT (site TGGTATACTAG)	0.15
TGGTATCCTTGGGTTCTAACCTGTTGCCT (site TGGTATCCTAG)	0.954
TGGTATCCTTGGGTTCTAACCTGTTGCCT (site TGGTATGCTAG)	0.396
TGGTATCCTTGGGTTCTAACCTGTTGCCT (site TGGTATTCTAG)	0.358
TGGTCGGCTTGGGTTCTAACCTGTTGCAC (site TAGTCAGCTGT)	0.0913
TGGTCGGCTTGGGTTCTAACCTGTTGCAC (site TGGTCGGCTGT)	0.385
TGGTGCGCTTGGGTTCTAACCTGTTGCCT (site TGGTACGCTAG)	0.33

Sequence	recombinant barcode read abundance (log10)
TGGTGCGCTTGGGTTCTAACCTGTTGCCT (site TGGTCCGCTAG)	0.324
TGGTGCGCTTGGGTTCTAACCTGTTGCCT (site TGGTGCGCTAG)	1.21
TGGTGCGCTTGGGTTCTAACCTGTTGCCT (site TGGTTCGCTAG)	0.0427
TGGTGTCCTTGGGTTCTAACCTGTTGCCA (site TCGAGTCCTTG)	0.0738
TGGTGTCCTTGGGTTCTAACCTGTTGCCA (site TGGTGTCCTTG)	0.473
TGGTGTCCTTGGGTTCTAACCTGTTGCCT (site TGGAGTCCTAG)	0.32
TGGTGTCCTTGGGTTCTAACCTGTTGCCT (site TGGCGTCCTAG)	0.279
TGGTGTCCTTGGGTTCTAACCTGTTGCCT (site TGGGGTCCTAG)	0.158
TGGTGTCCTTGGGTTCTAACCTGTTGCCT (site TGGTGTCCTAG)	1.58
TGGTTACCTTGGGTTCTAACCTGTTGCGG (site CACACGACTAA)	0.0374
TGGTTACCTTGGGTTCTAACCTGTTGCGG (site TGGTTACCTCC)	1.49
TGGTTGTCTTGGGTTCTAACCTGTTGCCT (site TGGCTGTCTAG)	0.522
TGGTTGTCTTGGGTTCTAACCTGTTGCCT (site TGGTTGTCTAG)	1.09
TGTACGACTTGGGTTCTAACCTGTTGCCT (site TGTACGACTAG)	0.146
TGTACGACTTGGGTTCTAACCTGTTGCCT (site TGTACGTCTAA)	0.0793
TGTACGACTTGGGTTCTAACCTGTTGCGG (site GAGTGTTCTAA)	0.0347
TGTACGACTTGGGTTCTAACCTGTTGCGG (site TGTACGACTCC)	0.7
TGTAGTACTTGGGTTCTAACCTGTTGCCT (site TGGAGTACTAA)	0.0714
TGTAGTACTTGGGTTCTAACCTGTTGCCT (site TGTAGTACTAG)	0.229
TGTATGACTTGGGTTCTAACCTGTTGCCT (site AGTATGACTAG)	0.65
TGTATGACTTGGGTTCTAACCTGTTGCCT (site CGTATGACTAG)	0.0259
TGTATGACTTGGGTTCTAACCTGTTGCCT (site GGTATGACTAG)	0.263
TGTATGACTTGGGTTCTAACCTGTTGCCT (site TGTATGACTAG)	0.46
TGTATGTCTTGGGTTCTAACCTGTTGCCT (site AGTATGTCTAG)	0.0212
TGTATGTCTTGGGTTCTAACCTGTTGCCT (site CGTATGTCTAG)	0.529
TGTATGTCTTGGGTTCTAACCTGTTGCCT (site GGTATGTCTAG)	0.402

Sequence	recombinant barcode read abundance (log10)
TGTATGTCTTGGGTTCTAACCTGTTGCCT (site TGTATGTCTAG)	0.0364
TGTCAACCTTGGGTTCTAACCTGTTGCGT (site TGTCAAACTAC)	0.0902
TGTCAACCTTGGGTTCTAACCTGTTGCGT (site TGTCAACCTAC)	1.02
TGTCAAGCTTGGGTTCTAACCTGTTGCCT (site TGTCAAACTAG)	0.574
TGTCAAGCTTGGGTTCTAACCTGTTGCCT (site TGTCAACCTAG)	0.045
TGTCAAGCTTGGGTTCTAACCTGTTGCCT (site TGTCAAGCTAG)	0.46
TGTCAAGCTTGGGTTCTAACCTGTTGCCT (site TGTCAATCTAG)	0.295
TGTCCACCTTGGGTTCTAACCTGTTGCCT (site AGTCCACCTAG)	0.0595
TGTCCACCTTGGGTTCTAACCTGTTGCCT (site CGTCCACCTAG)	0.267
TGTCCACCTTGGGTTCTAACCTGTTGCCT (site GGTCCACCTAG)	0.165
TGTCCACCTTGGGTTCTAACCTGTTGCCT (site TGTCCACCTAG)	0.623
TGTCGAGCTTGGGTTCTAACCTGTTGCGG (site TGTCGAGCTCC)	0.977
TGTCGAGCTTGGGTTCTAACCTGTTGCGG (site TTCCGAGCTCC)	0.00866
TGTCGGACTTGGGTTCTAACCTGTTGCAC (site TGTCGGACTAT)	0.741
TGTCGGACTTGGGTTCTAACCTGTTGCAC (site TGTCGGACTCT)	0.214
TGTCGGACTTGGGTTCTAACCTGTTGCAC (site TGTCGGACTGT)	0.38
TGTCGGACTTGGGTTCTAACCTGTTGCAC (site TGTCGGACTTT)	0.0148
TGTCGGCCTTGGGTTCTAACCTGTTGCTT (site CTATTTACTCC)	0.107
TGTCGGCCTTGGGTTCTAACCTGTTGCTT (site TGTCGGCCTAA)	0
TGTCTCCCTTGGGTTCTAACCTGTTGCTT (site TGTCTACCTTA)	0.0416
TGTCTCCCTTGGGTTCTAACCTGTTGCTT (site TGTCTCCCTAA)	0.777
TGTGACACTTGGGTTCTAACCTGTTGCAA (site AACAGGCCTAG)	0.121
TGTGACACTTGGGTTCTAACCTGTTGCAA (site TGTGACACTTT)	1.54
TGTGAGTCTTGGGTTCTAACCTGTTGCCT (site TGTGAGTCTAA)	0.0418
TGTGAGTCTTGGGTTCTAACCTGTTGCCT (site TGTGAGTCTAC)	0.73
